From ChEMBL document CHEMBL1909046, “DrugMatrix in vitro pharmacology data”

Tests used:
[1] = target: T1, Neuropeptide Y receptor type 1 (Homo sapiens, UniProt P25929); assay type: cell membranes, Membrane; details: sk-n-mc; also: in other assays of this panel Not Active means under 50% inhibition at 10 µM
T1 sequence (P25929 whole entry): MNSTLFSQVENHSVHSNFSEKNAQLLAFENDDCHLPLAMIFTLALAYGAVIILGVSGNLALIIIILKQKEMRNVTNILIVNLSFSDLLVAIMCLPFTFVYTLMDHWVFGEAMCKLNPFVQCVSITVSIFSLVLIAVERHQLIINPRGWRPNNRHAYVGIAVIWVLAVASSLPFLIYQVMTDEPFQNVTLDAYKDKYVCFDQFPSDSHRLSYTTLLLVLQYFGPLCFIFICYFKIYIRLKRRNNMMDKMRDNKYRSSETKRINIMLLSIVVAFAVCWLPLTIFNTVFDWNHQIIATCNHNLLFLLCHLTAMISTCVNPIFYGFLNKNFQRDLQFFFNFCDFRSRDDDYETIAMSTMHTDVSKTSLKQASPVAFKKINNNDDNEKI

[2] = target: Mitogen-activated protein kinase 3 (Homo sapiens, UniProt P27361); test: DRUGMATRIX: Protein Serine/Threonine Kinase, ERK1 enzyme inhibition (substrate: Myelin Basic Protein); design: species or system Escherichia coli; details: Not Active = under 50% inhibition at 10 µM
[3] = target: T2, Muscarinic acetylcholine receptor M2 (Homo sapiens, UniProt P08172); assay type: cell membranes, CHO-K1, Membrane; details: cho-k1; also: in other assays of this panel Not Active means under 50% inhibition at 10 µM
T2 sequence (P08172 whole entry): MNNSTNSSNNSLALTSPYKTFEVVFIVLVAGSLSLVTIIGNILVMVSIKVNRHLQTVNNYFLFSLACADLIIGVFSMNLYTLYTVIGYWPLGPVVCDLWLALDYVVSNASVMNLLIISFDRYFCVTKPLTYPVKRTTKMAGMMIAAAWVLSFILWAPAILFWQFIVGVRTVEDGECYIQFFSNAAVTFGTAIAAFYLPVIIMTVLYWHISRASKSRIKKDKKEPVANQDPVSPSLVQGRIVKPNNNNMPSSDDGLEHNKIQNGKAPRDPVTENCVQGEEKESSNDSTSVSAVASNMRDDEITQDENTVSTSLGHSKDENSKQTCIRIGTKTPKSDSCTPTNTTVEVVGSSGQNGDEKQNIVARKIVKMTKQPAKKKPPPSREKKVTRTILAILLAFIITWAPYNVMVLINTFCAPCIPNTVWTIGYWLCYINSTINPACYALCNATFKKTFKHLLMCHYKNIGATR

[4] = DRUGMATRIX: GABAA, Muscimol, Central radioligand binding (ligand: [3H] Muscimol); assay type: cell membranes, Rattus norvegicus, Wistar, Brain, Membrane; details: Not Active = under 50% inhibition at 10 µM
[5] = target: Delta-type opioid receptor (Homo sapiens, UniProt P41143); assay type: cell membranes, HEK293, Membrane; details: hek293; also: in other assays of this panel Not Active means under 50% inhibition at 10 µM
[6] = target: Cytochrome P450 2D6 (Homo sapiens, UniProt P10635); details: bti-tn-5b1-4; also: in other assays of this panel Not Active means under 50% inhibition at 10 µM
[7] = target: T3, Adenosine receptor A3 (Homo sapiens, UniProt P0DMS8); assay type: cell membranes, CHO-K1, Membrane; details: cho-k1
T3 sequence (P0DMS8 whole entry): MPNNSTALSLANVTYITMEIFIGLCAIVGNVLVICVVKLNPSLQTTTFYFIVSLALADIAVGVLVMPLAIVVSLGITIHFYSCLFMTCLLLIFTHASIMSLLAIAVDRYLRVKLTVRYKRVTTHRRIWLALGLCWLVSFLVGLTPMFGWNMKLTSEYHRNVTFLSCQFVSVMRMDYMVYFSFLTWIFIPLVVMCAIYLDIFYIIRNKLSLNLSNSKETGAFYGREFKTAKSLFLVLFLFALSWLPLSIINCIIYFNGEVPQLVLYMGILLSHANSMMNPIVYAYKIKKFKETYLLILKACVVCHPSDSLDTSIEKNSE

[8] = target: T4, Muscarinic acetylcholine receptor M5 (Homo sapiens, UniProt P08912); assay type: cell membranes, CHO-K1, Membrane; details: cho-k1; also: in other assays of this panel Not Active means under 50% inhibition at 10 µM
T4 sequence (P08912 whole entry): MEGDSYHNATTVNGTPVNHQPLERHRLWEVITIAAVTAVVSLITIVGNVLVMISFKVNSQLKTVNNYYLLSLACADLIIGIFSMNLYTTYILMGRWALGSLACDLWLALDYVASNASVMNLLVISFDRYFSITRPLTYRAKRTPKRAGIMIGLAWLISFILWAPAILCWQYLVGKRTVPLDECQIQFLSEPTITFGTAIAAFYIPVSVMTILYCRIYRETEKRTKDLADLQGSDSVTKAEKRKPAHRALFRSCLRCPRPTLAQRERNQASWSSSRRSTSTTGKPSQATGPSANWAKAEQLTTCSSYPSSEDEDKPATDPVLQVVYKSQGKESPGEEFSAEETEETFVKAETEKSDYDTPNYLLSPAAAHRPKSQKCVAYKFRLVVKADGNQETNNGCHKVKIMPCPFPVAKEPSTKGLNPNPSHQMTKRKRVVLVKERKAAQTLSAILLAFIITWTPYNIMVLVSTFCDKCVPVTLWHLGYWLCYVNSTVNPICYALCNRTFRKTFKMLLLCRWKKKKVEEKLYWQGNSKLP

[9] = target: T5, B2 bradykinin receptor (Homo sapiens, UniProt P30411); assay type: cell membranes, Membrane; details: chem-1; also: in other assays of this panel Not Active means under 50% inhibition at 10 µM
T5 sequence (P30411 whole entry): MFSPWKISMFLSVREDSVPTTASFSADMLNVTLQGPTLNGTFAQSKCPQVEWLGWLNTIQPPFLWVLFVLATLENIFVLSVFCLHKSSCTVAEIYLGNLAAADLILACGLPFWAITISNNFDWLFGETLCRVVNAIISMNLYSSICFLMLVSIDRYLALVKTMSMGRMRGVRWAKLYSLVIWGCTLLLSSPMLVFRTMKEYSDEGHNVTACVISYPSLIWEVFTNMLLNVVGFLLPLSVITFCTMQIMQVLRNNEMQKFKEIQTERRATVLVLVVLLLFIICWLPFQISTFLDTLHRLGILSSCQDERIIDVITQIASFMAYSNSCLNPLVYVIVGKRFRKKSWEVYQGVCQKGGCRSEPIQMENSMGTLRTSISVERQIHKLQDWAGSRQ

[10] = target: Sodium-dependent noradrenaline transporter (Homo sapiens, UniProt P23975); test: DRUGMATRIX: Norepinephrine Transporter radioligand binding (ligand: [125I] RTI-55); assay type: cell membranes, MDCK, Membrane; details: mdck; Not Active = under 50% inhibition at 10 µM
[11] = target: Nitric oxide synthase 1 (Rattus norvegicus, UniProt P29476); assay type: tissue-based, Cerebellum; also: in other assays of this panel Not Active means under 50% inhibition at 10 µM
Nitric oxide synthase 1, sequence (P29476 whole entry): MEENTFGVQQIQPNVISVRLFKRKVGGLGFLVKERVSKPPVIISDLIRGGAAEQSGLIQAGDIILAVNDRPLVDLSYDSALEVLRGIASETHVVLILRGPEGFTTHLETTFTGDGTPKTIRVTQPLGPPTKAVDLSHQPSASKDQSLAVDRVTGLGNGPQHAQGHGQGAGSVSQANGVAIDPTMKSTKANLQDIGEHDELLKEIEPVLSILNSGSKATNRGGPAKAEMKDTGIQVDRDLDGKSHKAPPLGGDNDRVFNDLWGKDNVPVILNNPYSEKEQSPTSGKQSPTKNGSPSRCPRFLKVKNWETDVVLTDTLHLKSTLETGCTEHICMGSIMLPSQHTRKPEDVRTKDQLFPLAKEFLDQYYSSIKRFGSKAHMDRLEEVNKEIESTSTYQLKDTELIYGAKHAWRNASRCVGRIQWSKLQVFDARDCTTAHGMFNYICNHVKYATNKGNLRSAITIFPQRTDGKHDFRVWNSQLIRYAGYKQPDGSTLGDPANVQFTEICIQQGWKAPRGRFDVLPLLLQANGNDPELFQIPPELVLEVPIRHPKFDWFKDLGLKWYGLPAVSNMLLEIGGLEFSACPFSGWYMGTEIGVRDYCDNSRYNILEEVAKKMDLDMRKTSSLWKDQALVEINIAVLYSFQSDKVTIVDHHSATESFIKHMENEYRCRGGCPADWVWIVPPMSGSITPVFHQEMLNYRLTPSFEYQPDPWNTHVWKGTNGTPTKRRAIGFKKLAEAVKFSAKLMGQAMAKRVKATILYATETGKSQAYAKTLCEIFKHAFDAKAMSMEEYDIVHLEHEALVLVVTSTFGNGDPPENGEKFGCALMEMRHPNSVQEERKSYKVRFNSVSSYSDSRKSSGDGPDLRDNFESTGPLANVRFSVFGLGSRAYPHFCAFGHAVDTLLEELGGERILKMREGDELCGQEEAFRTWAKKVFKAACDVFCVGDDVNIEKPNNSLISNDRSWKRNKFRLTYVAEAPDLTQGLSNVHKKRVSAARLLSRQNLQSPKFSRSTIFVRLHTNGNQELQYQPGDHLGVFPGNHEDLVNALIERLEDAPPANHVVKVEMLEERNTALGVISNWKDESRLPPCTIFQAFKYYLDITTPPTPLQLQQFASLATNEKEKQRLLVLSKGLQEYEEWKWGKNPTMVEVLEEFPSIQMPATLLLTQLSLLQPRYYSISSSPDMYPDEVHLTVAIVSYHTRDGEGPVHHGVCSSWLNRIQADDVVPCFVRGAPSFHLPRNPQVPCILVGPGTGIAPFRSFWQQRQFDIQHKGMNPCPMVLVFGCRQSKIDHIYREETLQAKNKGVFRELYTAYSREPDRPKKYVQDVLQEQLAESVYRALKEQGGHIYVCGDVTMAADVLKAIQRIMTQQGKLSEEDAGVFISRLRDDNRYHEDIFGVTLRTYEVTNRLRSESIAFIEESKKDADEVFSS

Mitogen-activated protein kinase 3, sequence (P27361 whole entry): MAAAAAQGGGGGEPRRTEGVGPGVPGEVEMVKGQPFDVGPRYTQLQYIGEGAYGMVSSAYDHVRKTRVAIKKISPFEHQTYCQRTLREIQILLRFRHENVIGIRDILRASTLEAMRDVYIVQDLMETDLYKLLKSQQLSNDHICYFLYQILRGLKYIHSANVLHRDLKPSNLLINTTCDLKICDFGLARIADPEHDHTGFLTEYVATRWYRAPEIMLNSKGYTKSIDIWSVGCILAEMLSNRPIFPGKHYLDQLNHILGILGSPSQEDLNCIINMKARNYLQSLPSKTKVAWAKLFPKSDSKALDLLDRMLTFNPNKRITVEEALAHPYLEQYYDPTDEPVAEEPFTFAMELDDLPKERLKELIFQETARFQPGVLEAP
Cytochrome P450 2D6, sequence (P10635 whole entry): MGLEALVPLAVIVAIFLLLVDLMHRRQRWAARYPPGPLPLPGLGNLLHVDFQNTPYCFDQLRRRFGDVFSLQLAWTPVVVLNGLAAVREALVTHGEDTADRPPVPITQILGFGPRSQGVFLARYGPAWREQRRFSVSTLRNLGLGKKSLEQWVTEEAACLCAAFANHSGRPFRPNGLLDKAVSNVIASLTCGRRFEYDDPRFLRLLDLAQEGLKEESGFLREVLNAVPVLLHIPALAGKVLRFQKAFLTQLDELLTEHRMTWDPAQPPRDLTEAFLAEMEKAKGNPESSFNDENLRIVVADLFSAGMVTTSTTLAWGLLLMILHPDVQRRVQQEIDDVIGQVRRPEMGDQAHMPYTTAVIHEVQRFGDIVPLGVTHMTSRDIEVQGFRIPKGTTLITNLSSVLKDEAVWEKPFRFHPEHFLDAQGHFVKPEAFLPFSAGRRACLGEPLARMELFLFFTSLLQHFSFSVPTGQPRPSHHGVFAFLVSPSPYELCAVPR
Delta-type opioid receptor, sequence (P41143 whole entry): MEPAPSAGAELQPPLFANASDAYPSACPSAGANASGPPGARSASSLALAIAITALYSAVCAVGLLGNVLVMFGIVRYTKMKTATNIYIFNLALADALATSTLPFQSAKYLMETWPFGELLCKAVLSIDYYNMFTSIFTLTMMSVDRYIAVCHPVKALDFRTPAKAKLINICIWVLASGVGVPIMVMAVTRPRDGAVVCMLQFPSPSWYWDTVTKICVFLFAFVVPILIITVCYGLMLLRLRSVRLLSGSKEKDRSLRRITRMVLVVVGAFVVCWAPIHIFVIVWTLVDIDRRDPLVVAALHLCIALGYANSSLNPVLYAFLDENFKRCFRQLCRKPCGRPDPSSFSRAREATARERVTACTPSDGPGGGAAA
Sodium-dependent noradrenaline transporter, sequence (P23975 whole entry): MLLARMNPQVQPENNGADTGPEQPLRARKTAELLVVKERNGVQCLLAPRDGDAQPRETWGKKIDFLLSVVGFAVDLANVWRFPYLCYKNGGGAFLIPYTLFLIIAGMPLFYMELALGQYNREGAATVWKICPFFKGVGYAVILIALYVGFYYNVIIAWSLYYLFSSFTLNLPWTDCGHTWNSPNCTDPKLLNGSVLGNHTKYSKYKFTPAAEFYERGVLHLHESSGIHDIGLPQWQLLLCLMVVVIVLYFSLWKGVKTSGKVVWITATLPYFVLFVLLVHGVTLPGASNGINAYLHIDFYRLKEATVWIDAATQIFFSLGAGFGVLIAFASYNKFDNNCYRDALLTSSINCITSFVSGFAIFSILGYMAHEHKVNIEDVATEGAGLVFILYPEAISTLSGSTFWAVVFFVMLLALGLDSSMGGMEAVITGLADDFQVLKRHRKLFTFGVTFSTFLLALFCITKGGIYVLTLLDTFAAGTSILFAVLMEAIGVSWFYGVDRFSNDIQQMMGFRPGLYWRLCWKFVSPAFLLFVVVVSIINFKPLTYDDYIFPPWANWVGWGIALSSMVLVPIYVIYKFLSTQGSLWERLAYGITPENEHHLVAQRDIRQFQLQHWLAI

CC(C)n1c(/C=C/C(O)CC(O)CC(=O)O)c(-c2ccc(F)cc2)c2ccccc21 (stereo not drawn) [FLUVASTATIN]
Not Active: IC50 [1] | IC50 [2] | IC50 [3] | IC50 [4] | Ki [4] | IC50 [5] | IC50 [6] | Ki [6] | IC50 [7] | IC50 [8] | IC50 [9] | IC50 [10] | IC50 [11]

NCC1(CC(=O)O)CCCCC1 [GABAPENTIN]
Not Active: IC50 [1] | IC50 [2] | IC50 [3] | IC50 [4] | Ki [4] | IC50 [5] | IC50 [6] | Ki [6] | IC50 [7] | IC50 [8] | IC50 [9] | IC50 [10] | IC50 [11]

COc1c(N2CCNC(C)C2)c(F)cc2c(=O)c(C(=O)O)cn(C3CC3)c12 (stereo not drawn) [GATIFLOXACIN]
Not Active: IC50 [1] | IC50 [2] | IC50 [3] | IC50 [4] | Ki [4] | IC50 [5] | IC50 [6] | Ki [6] | IC50 [7] | IC50 [8] | IC50 [9] | IC50 [10] | IC50 [11]

CC1(C)[C@@H](O[C@H]2O[C@H](C(=O)O)[C@@H](O)[C@H](O)[C@H]2O[C@@H]2O[C@H](C(=O)O)[C@@H](O)[C@H](O)[C@H]2O)CC[C@]2(C)[C@H]3C(=O)C=C4[C@@H]5C[C@@](C)(C(=O)O)CC[C@]5(C)CC[C@@]4(C)[C@]3(C)CC[C@@H]12 [GLYCYRRHIZIN]
Not Active: IC50 [1] | IC50 [2] | IC50 [3] | IC50 [4] | Ki [4] | IC50 [5] | IC50 [6] | Ki [6] | IC50 [7] | IC50 [8] | IC50 [9] | IC50 [10] | IC50 [11]

COC1=CC(=O)C[C@@H](C)[C@]12Oc1c(Cl)c(OC)cc(OC)c1C2=O [GRISEOFULVIN]
Not Active: IC50 [1] | IC50 [2] | IC50 [3] | IC50 [4] | Ki [4] | IC50 [5] | IC50 [6] | Ki [6] | IC50 [7] | IC50 [8] | IC50 [9] | IC50 [10] | IC50 [11]

C/C=C1\[C@H]2C=C(C)C[C@]1(N)c1ccc(=O)[nH]c1C2 [HUPERZINE A]
Not Active: IC50 [1] | IC50 [2] | IC50 [3] | IC50 [4] | Ki [4] | IC50 [5] | IC50 [6] | Ki [6] | IC50 [7] | IC50 [8] | IC50 [9] | IC50 [10] | IC50 [11]

NS(=O)(=O)c1cc2c(cc1Cl)NCNS2(=O)=O [HYDROCHLOROTHIAZIDE]
Not Active: IC50 [1] | IC50 [2] | IC50 [3] | IC50 [4] | Ki [4] | IC50 [5] | IC50 [6] | Ki [6] | IC50 [7] | IC50 [8] | IC50 [9] | IC50 [10] | IC50 [11]

CN1CCC[C@H]1c1cccnc1 [NICOTINE]
Not Active: IC50 [1] | IC50 [2] | IC50 [3] | IC50 [4] | Ki [4] | IC50 [5] | IC50 [6] | Ki [6] | IC50 [7] | IC50 [8] | IC50 [9] | IC50 [10] | IC50 [11]

O=C1CN=C(c2ccccc2)c2cc([N+](=O)[O-])ccc2N1 [NITRAZEPAM]
Not Active: IC50 [1] | IC50 [2] | IC50 [3] | IC50 [4] | Ki [4] | IC50 [5] | IC50 [6] | Ki [6] | IC50 [7] | IC50 [8] | IC50 [9] | IC50 [10] | IC50 [11]

Oc1cccc2cccnc12 [OXYQUINOLINE]
Not Active: IC50 [1] | IC50 [2] | IC50 [3] | IC50 [4] | Ki [4] | IC50 [5] | IC50 [6] | Ki [6] | IC50 [7] | IC50 [8] | IC50 [9] | IC50 [10] | IC50 [11]

CN(C)[C@@H]1C(O)=C(C(N)=O)C(=O)[C@@]2(O)C(O)=C3C(=O)c4c(O)cccc4[C@@](C)(O)[C@H]3[C@H](O)[C@@H]12 [OXYTETRACYCLINE]
Not Active: IC50 [1] | IC50 [2] | IC50 [3] | IC50 [4] | Ki [4] | IC50 [5] | IC50 [6] | Ki [6] | IC50 [7] | IC50 [8] | IC50 [9] | IC50 [10] | IC50 [11]
